# Measured values published in patent publication US8785400B2, “Methods and compositions relating to islet cell neogenesis” (CureDM Group Holdings, LLC, priority 2006, dated 2014).
# How the values were obtained:
# [1] = system: human cell cultures (mixed islets and ductal tissue cultures); test: Insulin content by RIA, mixed human islet and ductal cultures (Example 2); format: cell-based; conditions: vs HIP1, HIP, hamster INGAP, saline; FIG. 3
# Experimental: HIP2, HIP1, HIP, controls and progenitor fractions were cultured over 10 days, according to standard protocol. Briefly, pancreata from adult human cadaveric organ donors were obtained through the local organ procurement organization. Islets were isolated according to established protocols described by Bonner-Weir and Jamal. (Bonner-Weir et al. Pediatric Diabetes: 2004; 5 (Suppl 2): 16-22. Jamal et al. Cell Death Differ. 2005 July; 12(7): 702-12). HIP2, HIP1, HIP and INGAP were synthesized by Bachem Bioscience, Malvern, Pa. and were quality tested by HPCL to be greater than 95% pure. Each peptide was provided in lyophilized powder and was resuspended in isotonic saline solution. Stock solutions were made so that only 1-2 ul aliquots were added to primary cell cultures to reach the final concentrations provided below. Stock solutions were frozen and thawed a total of three times for the six day treatment. […]
# Pancreata from adult human cadaveric organ donors were obtained through the local organ procurement organization. […] Free islets with diameters ranging from 75 to 400 μm, determined to be greater than 90% pure by staining with dithizone (Sigma) a zinc chelater, were collected and washed. […]
# Insulin levels were detected by Radioimmunoassay (RIA) from cultures treated with saline only (s/0), HIP2, HIP1, HIP and hamster INGAP. […]
# [2] = Stability of peptide in isotonic saline; format: physicochemical; conditions: 20° C. in isotonic saline
# Experimental: Further, HIP2, may be stably stored for long periods of time.
# HIP2, HIP1, HIP, controls and progenitor fractions were cultured over 10 days, according to standard protocol. Briefly, pancreata from adult human cadaveric organ donors were obtained through the local organ procurement organization. Islets were isolated according to established protocols described by Bonner-Weir and Jamal. (Bonner-Weir et al. Pediatric Diabetes: 2004; 5 (Suppl 2): 16-22. Jamal et al. Cell Death Differ. 2005 July; 12(7): 702-12). HIP2, HIP1, HIP and INGAP were synthesized by Bachem Bioscience, Malvern, Pa. and were quality tested by HPCL to be greater than 95% pure. Each peptide was provided in lyophilized powder and was resuspended in isotonic saline solution. Stock solutions were made so that only 1-2 ul aliquots were added to primary cell cultures to reach the final concentrations provided below. […] HPLC data confirmed that the peptides remained stable in the isotonic saline after the freeze/thaw cycles.
# [3] = system: human pancreatic islet tissue cultures; test: Insulin production by ELISA, human islet tissue cultures (Example 3); format: cell-based; conditions: vs SEQ ID NO:1 and SEQ ID NO:5
# Experimental: Samples are 0.002 μg total protein in duplicate and measured by ELISA assay.
# Values are mean insulin units (of duplicate samples) as measured by ELISA assay.
# Human pancreatic tissue was treated as described in Example 1 and Insulin production was measured by ELISA assay. FIGS. 5 and 6 show the results of this experiment to show a dose response and to again compare the effect of HIP2 on the two different fractions of tissue as compared to the hamster INGAP sequence and a scrambled negative peptide sequence. […] The results in FIG. 5 were generated using 5 μg of each peptide, while the results in FIG. 6 were acquired using 0.002 μg of each peptide.
substance,measurement,setting,value
"HIP2: Human proIslet Peptide, fragment of human REG3A, in purified, synthetic, or recombinant form (SEQ ID NO:4) (IGLHDPTQGTEPNG; Fragment of naturally occurring human REG3 protein)","increased bioactivity over the other agents used (insulin, RIA)",[1],1.50-3.33 fold
same,storage stability,[2],stable for months
same,insulin production (FIG. 6),"[3]; after 10 days, Rosenberg protocol, 0.002 μg",increased insulin production
same,insulin production (FIG. 8A),[3]; two concentrations (3 μM and 1 mM),increased insulin production
